# Source: patent publication US20110182982A1, “LIPOSOME TREATMENT OF VIRAL INFECTIONS” (University of Oxford, priority 2006, published 2011)
# Experiments:
# [1] = pH sensitivity of DCPP liposomes (calcein leakage); assay type: physicochemical; settings: 1 mM encapsulated, pH 5.0-7.4, vs calcein only liposomes
# Experimental: DCPP liposomes encapsulating 1-mM DNJ, NB-DNJ, or NN-DNJ in 80-mM calcein buffer were compared with empty (calcein only) liposomes to determine the effects of the alkyl chain of NB-DNJ and NN-DNJ on the pH-sensitivity. 10 μl of calcein-loaded DCPP liposomes (final phospholipid concentration, 5 μM) was added to 2 ml of MES-buffered saline at various pH values ranging from 5.0-7.4, and left to incubate with shaking 15 min at 37° C. Following incubation, calcein fluorescence was measured before and after the addition of Triton to a final concentration of 0.1%. Fluorescence intensities obtained at acidic pH values were corrected for the slight effect of pH on calcein fluorescence. The percentage of calcein release at each pH was calculated using the formula: % leakage=((in−I0)/(I100−I0))×100, where I0 is the fluorescence at neutral pH, In is the corrected intensity at acidic pH before the addition of Triton, and I100 is the total dequenched calcein at neutral pH.
# ER glucosidases I and II = assay: Free oligosaccharide (FOS) analysis as marker of glucosidase inhibition; assay type: cell-based, Chinese hamster
# Source text: Free oligosaccharides (FOS) produced in the presence of free or DCPP liposomes encapsulating NB-DNJ are characterized and used as a cellular marker for glucosidase inhibition to measure the enhancement of drug activity due to intracellular delivery. […] In this experiment, the distribution of glucosylated FOS is used as a measure of glucosidase inhibition by NB-DNJ, where Glc1Mann-FOS and Glc2Mann-FOS species are a result of glucosidase II inhibition, and Glc3Mann-FOS a result of glucosidase I inhibition.
# CHO cells were incubated in the presence of free NB-DNJ at the antiviral concentration of 0.5 mM, or with 100 μM of DCPP liposomes encapsulating NB-DNJ at final concentrations ranging 0-75 nM. Cells were left to incubate for 5 days and isolation of FOS was performed using cell homogenates standardized to 500 μg of total protein as described by Mellor et al (2004). Biochem J. 2004 Aug. 1; 381 (Pt 3): 861-866. Detection of FOS was performed by normal-phase HPLC following labeling of oligosaccharides by 2-aminobenzamide. The compositions of FOS were further characterized and determined by digestions with glycosidases including endoglycosidase H, jack bean α-mannosidase, and α-glucosidases I and II. The percentage of non-glucosylated and glucosylated oligomannose FOS (represented by Mann-FOS, Glc1Mann-FOS, Glc2Mann-FOS, and Glc3Mann-FOS) was calculated for each sample, and results are represented in Table 2. Results represent the mean±S.D. of four separate experiments.
# [2] = test system: HIV envelope protein gp120; assay: 2G12 and b12 binding to gp120 expressed in CHO cells, capture ELISA; assay type: cell-based
# Experimental: In the following example, the activity of NB-DNJ as measured by the inhibition of glycan processing on the HIV envelope protein, gp120, is determined following expression in CHO cells in the presence of free or DCPP liposome-encapsulated NB-DNJ.
# CHO cells expressing a soluble form of HIV gp120 were incubated in the presence of free NB-DNJ with concentrations ranging between 0-5 mM, or with liposomes encapsulating NB-DNJ with final concentrations in the medium ranging between 0 and 750 nM. Cells were left to incubate for 5 days before cellular supernatant containing the treated gp120 was collected. To measure the inhibition of glycan processing on gp120 expressed in the presence of NB-DNJ (either free or in liposomes), the binding of the MAb 2G12 was determined by capture ELISA. 2G12 recognizes a cluster of mannose residues on the carbohydrate-rich surface of gp120, and loss of binding in the presence of NB-DNJ results from the retention of glucose on the oligomannose glycans that form the epitope. A loss of binding affinity, however, may also arise from a misfolding of the protein, and to distinguish between these two possibilities, the affinity of all samples for the neutralizing MAb, b12, is also measured. […] Soluble gp120 located in the cellular supernatant was captured in ELISA plates using the D7324 antibody (binds the C5 region of gp120) and treated with 10 μg/ml of either 2G12 or b12. The binding of both antibodies to NB-DNJ-treated samples was related to that for the untreated gp120, where data are expressed as percent binding and represent the mean±S.D. of triplicates from four separate experiments.
# [3] = 7.5 nM, liposome-mediated delivery
smiles,measurement,setting,value
"CCCCN1C[C@H](O)[C@@H](O)[C@H](O)[C@H]1CO [NB-DNJ, N-butyl-1,5-dideoxy-1,5-imino-D-glucitol]",pH sensitivity / stability of DCPP liposomes,[1],significant decrease in pH sensitivity
same,Distribution of total FOS Glc0Mann,ER glucosidases I and II; 0.75 pM in liposomes,70.7 ± 5.4%
same,Distribution of total FOS Glc1Mann,ER glucosidases I and II; 0.75 pM in liposomes,18.7 ± 3.7%
same,Distribution of total FOS Glc2Mann,ER glucosidases I and II; 0.75 pM in liposomes,7.7 ± 1.1%
same,Distribution of total FOS Glc3Mann,ER glucosidases I and II; 0.75 pM in liposomes,2.9 ± 0.9%
same,Distribution of total FOS Glc0Mann,ER glucosidases I and II; 7.5 pM in liposomes,70.4 ± 4.2%
same,Distribution of total FOS Glc1Mann,ER glucosidases I and II; 7.5 pM in liposomes,17.7 ± 1.3%
same,Distribution of total FOS Glc2Mann,ER glucosidases I and II; 7.5 pM in liposomes,8.3 ± 2.1%
same,Distribution of total FOS Glc3Mann,ER glucosidases I and II; 7.5 pM in liposomes,3.6 ± 1.3%
same,Distribution of total FOS Glc0Mann,ER glucosidases I and II; 75 pM in liposomes,51.7 ± 4.7%
same,Distribution of total FOS Glc1Mann,ER glucosidases I and II; 75 pM in liposomes,38.6 ± 4.1%
same,Distribution of total FOS Glc2Mann,ER glucosidases I and II; 75 pM in liposomes,5.3 ± 1.8%
same,Distribution of total FOS Glc3Mann,ER glucosidases I and II; 75 pM in liposomes,4.4 ± 2.8%
same,Distribution of total FOS Glc0Mann,ER glucosidases I and II; 0.75 nM in liposomes,20.4 ± 2.7%
same,Distribution of total FOS Glc1Mann,ER glucosidases I and II; 0.75 nM in liposomes,66.9 ± 5.1%
same,Distribution of total FOS Glc2Mann,ER glucosidases I and II; 0.75 nM in liposomes,7.4 ± 3.3%
same,Distribution of total FOS Glc3Mann,ER glucosidases I and II; 0.75 nM in liposomes,5.3 ± 2.9%
same,Distribution of total FOS Glc0Mann,ER glucosidases I and II; 7.5 nM in liposomes,12.7 ± 2.6%
same,Distribution of total FOS Glc1Mann,ER glucosidases I and II; 7.5 nM in liposomes,50.0 ± 4.8%
same,Distribution of total FOS Glc2Mann,ER glucosidases I and II; 7.5 nM in liposomes,28.6 ± 2.7%
same,Distribution of total FOS Glc3Mann,ER glucosidases I and II; 7.5 nM in liposomes,8.7 ± 1.7%
same,Distribution of total FOS Glc0Mann,ER glucosidases I and II; 75 nM in liposomes,13.2 ± 4.1%
same,Distribution of total FOS Glc1Mann,ER glucosidases I and II; 75 nM in liposomes,7.9 ± 2.8%
same,Distribution of total FOS Glc2Mann,ER glucosidases I and II; 75 nM in liposomes,26.6 ± 4.5%
same,Distribution of total FOS Glc3Mann,ER glucosidases I and II; 75 nM in liposomes,52.3 ± 6.2%
same,Distribution of total FOS Glc0Mann,ER glucosidases I and II; 0.5 mM free,11.9 ± 1.9%
same,Distribution of total FOS Glc1Mann,ER glucosidases I and II; 0.5 mM free,9.5 ± 0.9%
same,Distribution of total FOS Glc2Mann,ER glucosidases I and II; 0.5 mM free,31.7 ± 4.5%
same,Distribution of total FOS Glc3Mann,ER glucosidases I and II; 0.5 mM free,46.9 ± 4.8%
same,gp120 binding to 2G12,[2]; [3],9.8±4.8%
same,gp120 binding to b12,[2]; [3],96.3±3.2%
same,gp120 binding to 2G12,[2]; 0.5-mM free in the medium,1.2±0.1%
same,gp120 binding to b12,[2]; 0.5-mM free in the medium,100%
